According to the NIST ThermoML archive (doi:10.1021/acs.jced.9b00399):

How the values were obtained:
[1] = xn = mol fraction of the nth substance listed; settings: Gas, isochoric method, x1 = 0.6992
[2] = Gas, isochoric method

[HH] [hydrogen] + O=C=O
[1]
Settings	mass density [kg/m3]
673.4 K, 20652 kPa	50.77
683.6 K, 20986 kPa	50.78
693.5 K, 21304 kPa	50.79
703.3 K, 21638 kPa	50.85
713.9 K, 21981 kPa	50.87
723.3 K, 22282 kPa	50.87
733.9 K, 22610 kPa	50.86
743.9 K, 22909 kPa	50.82
753.6 K, 23216 kPa	50.82

O [water]
[2]
Settings	mass density [kg/m3]
724.1 K, 15981 kPa	58.3
773.1 K, 17804 kPa	58.58
826.1 K, 19727 kPa	58.95
877.1 K, 21161 kPa	58.02
927.1 K, 22542 kPa	57.4

[HH] [hydrogen]
[2]
Settings	mass density [kg/m3]
722.4 K, 20262 kPa	6.45
733.6 K, 20559 kPa	6.449
743.1 K, 20811 kPa	6.447
753.6 K, 21086 kPa	6.447
763.9 K, 21370 kPa	6.445
773.4 K, 21625 kPa	6.445
784.3 K, 21917 kPa	6.444
792.8 K, 22153 kPa	6.443
803.8 K, 22451 kPa	6.442
812.9 K, 22702 kPa	6.442
822.2 K, 22963 kPa	6.441
834.3 K, 23222 kPa	6.422
844.3 K, 23469 kPa	6.412
854.7 K, 23640 kPa	6.381
863.3 K, 23818 kPa	6.366
874.1 K, 24069 kPa	6.354
883.3 K, 24272 kPa	6.344
892.3 K, 24413 kPa	6.337
904.5 K, 24668 kPa	6.324
914.1 K, 24899 kPa	6.319
924 K, 25112 kPa	6.313

N#N [nitrogen]
[2]
Settings	mass density [kg/m3]
727.3 K, 20352 kPa	86.58
805.8 K, 22603 kPa	86.28
874.6 K, 24580 kPa	86.14
927.1 K, 26090 kPa	86.03
